The EC50 is the concentration needed to bring the measured effect to its halfway point.

This note sets out measurements from patent US20230158155A1, “Cell Surface Receptor Binding Compounds and Conjugates” (priority 2020, published 2023).

Data set [1] has as its target T1, recombinant human CI-M6PR protein (Homo sapiens, UniProt P11717).
T1 construct: purchased R&D 6418-GR-050
As to the kind of experiment: Human CI-M6PR binding assay (ELISA). The note with it: for EC50: antibody conjugate; for binding affinity for M6PR, rank among the conjugates tested: matuzumab conjugates, ELISA, FIGS. 19A-19F. Here is the method:
Nunc black solid bottom MaxiSorp plates were allowed to incubate overnight at 4° C. coated with […] of recombinant human CI-M6PR protein (R&D, 6418-GR-050) in 50 μL PBS. The next day, coating was decanted and plates were washed 3× with PBS. Wells were blocked with 350 μL of 3% BSA-PBS for 1 hour at room temperature. […] 50 μL of diluted conjugates were added to the plate and allowed to incubate at room temperature for 2 hours. After incubation, solutions in plate were decanted and washed with 350 μL of 0.05% PBS-Tween20 three times, drying the plate each wash on a clean paper towel. 50 μL of peroxidase AffiniPure Mouse Anti-Human IgG (Jackson Immuno, 209-035-088) diluted in 3% BSA-PBS to […] was added to the plate and allowed to incubate for 1 hour at room temperature in the dark. After incubation, solutions in plate were decanted and washed with 350 μL of 0.05% PBS-Tween20 3 times, drying the plate each wash on a clean paper towel. […] 50 μL of QuantaBlu solution was added to wells and allowed to incubate for 5-10 minutes at room temperature. After incubation, plates were read on a Perkin Elmer EnVision using photometric 340 and Umbelliferone 460 filter sets for excitation and emission, respectively. Data analysis and non-linear curve-fitting was performed using GraphPad Prism.

A short description of data set [2]: Serum pharmacokinetic analysis of rIgG1 (anti-IgG2a) antibody conjugates. The format is in vivo. The settings on record: C57B6 mice, intravenous, 10 μg/mouse, 0.5-24 hours, FIGS. 20A-20C. Here is the method:
A pharmacokinetic analysis of the rIgG1 (anti-IgG2a) antibody conjugates described in the previous example was performed in mice. In particular, C57B6 mice were intravenously administered each rIgG1 antibody conjugate at 10 μg/mouse (5 mice per group). Blood was collected at 0.5, 1, 2, 6, and 24 hours and serum rIgG1 was analyzed using an ELISA kit (Abcam) according to the manufacturer's instructions. Samples were run across 3 different plates with unconjugated rIgG1 controls (UNLB-anti-IgG2a rIgG1) included on all 3 plates.

Data set [3] deals with Jurkat cells. Nature of the data set: Conjugate-mediated uptake of IgG2a-Alexa488 into Jurkat cells (flow cytometry). The format is cell-based. Here is the method: The anti-IgG2a conjugates were bound to IgG2a-Alexa488, as follows: equal molar ratios of anti-IgG2a and IgG2a-Alexa488 were added in tissue culture media for 30 minutes at room temperature. The resulting anti-IgG2a:IgG2a antibody-Alexa488 compositions were added to Jurkat cells (100 k cells/50 ul per well, n=2), and Alexa488 fluorescence levels were measured (via Alexa488 measurement) at 1 hour and 24 hours by flow cytometry. Because Alexa488 accumulates in cells, this presents a way to measure total intracellular uptake by cells over time.

Data set [4] deals with Hep G2 cells. Nature of the data set: Conjugate-mediated uptake of IgG2a into HepG2 cells. The format is cell-based, human. The note with it: one hour incubation, FIG. 25; average loading (816), DAR4 (817), DAR4 (520). Here is the method: The uptake of antibody conjugates of exemplary M6PR or ASGPR binding compounds was assessed in Hep G2 cells, using a method similar to that described in Example 79.

Where [5] appears, read: average loading DAR 9, FIG. 23, read-out: EC50 (nM) in M6PR binding assay.
The mark [6] stands for this setting: average loading DAR 9.5, FIG. 23, read-out: EC50 (nM) in M6PR binding assay.

Read-outs that look alike come from different tables or passages of the source.

Take `O=C(CCOCCOCCOCCN(CCOCCOCCOCCn1cc(CCC[C@H]2O[C@H](CCP(=O)(O)O)[C@@H](O)[C@H](O)[C@@H]2O)nn1)CCOCCOCCOCCn1cc(CCO[C@H]2O[C@H](CCP(=O)(O)O)[C@@H](O)[C@H](O)[C@@H]2O)nn1)Oc1c(F)c(F)c(F)c(F)c1F` [Compound I-12]: the “binding affinity to M6PR compared to Compound I-7” value in data set [1] (conjugates of ligand linkers) was “weaker binding affinity”. In data set [2], the “half life (serum rIgG1) compared to Compound I-7 conjugate” value is given as “longer half life”. In addition, the “uptake of IgG2a-Alexa488 into Jurkat cells” value in data set [3] (anti-IgG2a conjugates, 1 hour and 24 hours, FIGS. 21-22) is “sufficiently robust uptake”.
Consider `CC(=O)N[C@H]1[C@H](OCCCCC(=O)NCCCNC(=O)CCOCC(COCCC(=O)NCCCNC(=O)CCCCO[C@@H]2O[C@H](CO)[C@H](O)[C@H](O)[C@H]2NC(C)=O)(COCCC(=O)NCCCNC(=O)CCCCO[C@@H]2O[C@H](CO)[C@H](O)[C@H](O)[C@H]2NC(C)=O)NC(=O)CCCCCCCCCCC(=O)Oc2c(F)c(F)c(F)c(F)c2F)O[C@H](CO)[C@H](O)[C@@H]1O` [816 (ASGPR compound I-124)], for which the “uptake into HepG2 cells (cell fluorescence versus conjugate concentration)” value in data set [4] is listed as “comparable HepG2 cellular uptake”.
For the molecule `O=C(CCCCCc1cn(CCOCCOCCOCCOCCC(=O)Oc2c(F)c(F)c(F)c(F)c2F)nn1)Nc1ccc(O[C@H]2O[C@H](CCP(=O)(O)O)[C@@H](O)[C@H](O)[C@@H]2O)cc1` [513 (I-39)], the EC50 in data set [1] (setting [5]) was 0.186 nM.
Regarding `O=C(CCOCCOCCOCCOCCOCCOCCOCCOCCn1cc(CCCCNC(=S)Nc2ccc(O[C@H]3O[C@H](CCP(=O)(O)O)[C@@H](O)[C@H](O)[C@@H]3O)cc2)nn1)Oc1c(F)c(F)c(F)c(F)c1F` [526 (I-48)], the EC50 in data set [1] (average loading DAR 10, FIG. 23, read-out: EC50 (nM) in M6PR binding assay) came to 0.186 nM.
Turning to `C[C@H](NC(=O)CCCn1cc(CCCCNC(=S)Nc2ccc(O[C@H]3O[C@H](CCP(=O)(O)O)[C@@H](O)[C@H](O)[C@@H]3O)cc2)nn1)C(=O)N[C@@H](C)C(=O)N[C@@H](C)C(=O)NCCOCCOCCOCCOCCC(=O)Oc1c(F)c(F)c(F)c(F)c1F` [528 (I-51)], the EC50 in data set [1] (EC50 (nM) in M6PR binding assay, additional M6PR binding assays, average loading DAR 2) was 4.44 nM; in data set [1] (EC50 (nM) in M6PR binding assay, additional M6PR binding assays, average loading DAR 8) it was 0.301 nM; in data set [1] (EC50 (nM) in M6PR binding assay, average loading DAR 9.5, FIG. 23), 0.199 nM. Further, the “uptake into Jurkat cells, average loading DAR9 versus lower average loading DAR2” value in data set [3] (one hour incubation, FIG. 24) is “greater uptake”.
On to `O=C(CCOCCOCCOCCOCCn1cc(CCCCNC(=S)Nc2ccc(O[C@H]3O[C@H](CC(C(=O)O)C(=O)O)[C@@H](O)[C@H](O)[C@@H]3O)cc2)nn1)Oc1c(F)c(F)c(F)c(F)c1F` [537 (I-66)], for which the EC50 in data set [1] (additional M6PR binding assays, average loading DAR 8, read-out: EC50 (nM) in M6PR binding assay) came out at 2.31 nM; in data set [1] (setting [5]) it was 3.36 nM.
For the molecule `O=C(CCCn1cc(CCCCNC(=S)Nc2ccc(O[C@H]3O[C@H](CCP(=O)(O)O)[C@@H](O)[C@H](O)[C@@H]3O)cc2)nn1)N[C@@H](CCCCn1cc(CCCCNC(=S)Nc2ccc(O[C@H]3O[C@H](CCP(=O)(O)O)[C@@H](O)[C@H](O)[C@@H]3O)cc2)nn1)C(=O)N[C@@H](CCCCn1cc(CCCCNC(=S)Nc2ccc(O[C@H]3O[C@H](CCP(=O)(O)O)[C@@H](O)[C@H](O)[C@@H]3O)cc2)nn1)C(=O)N[C@@H](CCCCn1cc(CCCCNC(=S)Nc2ccc(O[C@H]3O[C@H](CCP(=O)(O)O)[C@@H](O)[C@H](O)[C@@H]3O)cc2)nn1)C(=O)NCCOCCOCCOCCOCCC(=O)Oc1c(F)c(F)c(F)c(F)c1F` [728 (I-52)], in data set [1] (additional M6PR binding assays, average loading DAR 6, read-out: EC50 (nM) in M6PR binding assay), the concentration for a half-maximal effect (EC50) worked out at 0.28 nM.
Regarding `O=C(CCOCCn1cc(COCCOCCOCCNC(=S)Nc2ccc(O[C@H]3O[C@H](CCP(=O)(O)O)[C@@H](O)[C@H](O)[C@@H]3O)cc2)nn1)Oc1c(F)c(F)c(F)c(F)c1F` [522 (I-49)], the EC50 in data set [1] (average loading DAR 11, FIG. 23, read-out: EC50 (nM) in M6PR binding assay) is 0.227 nM.
With `O=C(CCOCCOCCOCCOCCn1cc(CCCCNC(=S)Nc2ccc(O[C@H]3O[C@H](CCP(=O)(O)O)[C@@H](O)[C@H](O)[C@@H]3O)cc2)nn1)Oc1c(F)c(F)c(F)c(F)c1F` [520 (I-7)], the EC50 came out at 0.412 nM in data set [1] (additional M6PR binding assays, average loading DAR 4, read-out: EC50 (nM) in M6PR binding assay); 2.6 nM in data set [1] (average loading DAR 2, FIG. 23, read-out: EC50 (nM) in M6PR binding assay); 0.221 nM in data set [1] (average loading DAR 4, FIG. 23, read-out: EC50 (nM) in M6PR binding assay); 0.217 nM in data set [1] (setting [5]). In data set [4], the “uptake into HepG2 cells (cell fluorescence versus conjugate concentration)” value is “comparable HepG2 cellular uptake”.
With `CC(=O)N[C@H]1[C@H](OCCCCC(=O)NCCCNC(=O)CCOCC(COCCC(=O)NCCCNC(=O)CCCCO[C@@H]2O[C@H](CO)[C@H](O)[C@H](O)[C@H]2NC(C)=O)(COCCC(=O)NCCCNC(=O)CCCCO[C@@H]2O[C@H](CO)[C@H](O)[C@H](O)[C@H]2NC(C)=O)NC(=O)CCCCCCCCCCCN2C(=O)C=CC2=O)O[C@H](CO)[C@H](O)[C@@H]1O` [817 (ASGPR compound I-123), N-[1,3-bis(2-{[3-(5-{[(2R,3R,4R,5R,6R)-3-acetamido-4,5-dihydroxy-6-(hydroxymethyl)oxanyl]oxy}pentanamido)propyl]carbamoyl}ethoxy)-2-[(2-{[3-(5-{[(2R,3R,4R,5R,6R)acetamido-4,5-dihydroxy-6-(hydroxymethyl)oxanyl]oxy}pentanamido)propyl]carbamoyl}ethoxy)methyl]propan-2-yl]-12-(2,5-dioxo-2,5-dihydro-1H-pyrrol-1-yl)dodecanamide], in data set [4], the “uptake into HepG2 cells (cell fluorescence versus conjugate concentration)” value is “comparable HepG2 cellular uptake”.
As for `O=C(CCOCCn1cc(CCCCNC(=S)Nc2ccc(O[C@H]3O[C@H](CCP(=O)(O)O)[C@@H](O)[C@H](O)[C@@H]3O)cc2)nn1)Oc1c(F)c(F)c(F)c(F)c1F` [519 (I-47)], the concentration for a half-maximal effect (EC50) in data set [1] (setting [6]) is 0.266 nM.
On to `O=C(NCCCCc1cn(CCOCCOCCOCCOCCC(=O)Oc2c(F)c(F)c(F)c(F)c2F)nn1)Nc1ccc(O[C@H]2O[C@H](CCP(=O)(O)O)[C@@H](O)[C@H](O)[C@@H]2O)cc1` [529 (I-38)], for which, in data set [1] (setting [6]), the EC50 was 0.194 nM.
Regarding `O=C(CCOCCOCCOCCN(CCOCCOCCOCCn1cc(CCCCNC(=S)Nc2ccc(O[C@H]3O[C@H](CCP(=O)(O)O)[C@@H](O)[C@H](O)[C@@H]3O)cc2)nn1)CCOCCOCCOCCn1cc(CCCCNC(=S)Nc2ccc(O[C@H]3O[C@H](CCP(=O)(O)O)[C@@H](O)[C@H](O)[C@@H]3O)cc2)nn1)NCCN1C(=O)C=CC1=O` [706 (I-41)], in data set [1] (additional M6PR binding assays, maleimide-Cys conjugation, read-out: EC50 (nM) in M6PR binding assay), the EC50 worked out at 0.271 nM.

B1: Compound I-7 (d8): "matuzumab conjugates (matuzumab-Compound I-7(d4), matuzumab-Compound I-7(d8) ..." (conjugate)
heavy: QVQLVQSGAEVKKPGASVKVSCKASGYTFTSHWMHWVRQAPGQGLEWIGEFNPSNGRTNYNEKFKSKATMTVDTSTNTAYMELSSLRSEDTAVYYCASRDYDYAGRYFDYWGQGTLVTVSSASTKGPSVFPLAPSSKSTSGGTAALGCLVKDYFPEPVTVSWNSGALTSGVHTFPAVLQSSGLYSLSSVVTVPSSSLGTQTYICNVNHKPSNTKVDKKVEPKS
light: DIQMTQSPSSLSASVGDRVTITCSASSSVTYMYWYQQKPGKAPKLLIYDTSNLASGVPSRFSGSGSGTDYTFTISSLQPEDIATYYCQQWSSHIFTFGQGTKVEIKRTVAAPSVFIFPPSDEQLKSGTASVVCLLNNFYPREAKVQWKVDNALQSGNSQESVTEQDSKDSTYSLSSTLTLSKADYEKHKVYACEVTHQGLSSPVTKSFNRGE
modifications: left off: a dimerising Fc or GST
For the molecule B1, the “binding affinity for M6PR, rank among the conjugates tested” value in data set [1] is on record as “highest”.

B2: Compound I-11 (d4): "matuzumab conjugates (... matuzumab-Compound I-11(d4) ..." (conjugate)
heavy: B1 heavy
light: B1 light
modifications: left off: a dimerising Fc or GST
For B2, the “binding affinity for M6PR, rank among the conjugates tested” value in data set [1] is reported as “lowest”.
